The assay concerns the target T1, human FXR (Homo sapiens, UniProt Q96RI1).
T1 construct: expressed in transfected cells
T1 sequence (Q96RI1 1-486): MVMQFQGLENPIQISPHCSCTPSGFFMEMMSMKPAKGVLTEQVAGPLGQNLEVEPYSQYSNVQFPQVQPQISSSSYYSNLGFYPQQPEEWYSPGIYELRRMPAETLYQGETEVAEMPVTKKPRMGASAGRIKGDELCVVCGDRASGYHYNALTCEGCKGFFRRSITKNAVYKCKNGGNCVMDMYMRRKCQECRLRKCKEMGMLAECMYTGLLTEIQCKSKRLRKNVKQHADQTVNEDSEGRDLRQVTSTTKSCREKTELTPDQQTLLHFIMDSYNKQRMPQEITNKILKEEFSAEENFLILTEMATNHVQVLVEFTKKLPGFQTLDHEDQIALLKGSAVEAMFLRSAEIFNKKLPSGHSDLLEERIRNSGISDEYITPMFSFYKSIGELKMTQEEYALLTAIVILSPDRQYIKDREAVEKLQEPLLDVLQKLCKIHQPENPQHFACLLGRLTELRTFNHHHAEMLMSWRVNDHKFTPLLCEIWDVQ
As to the kind of experiment: FXR reporter assay (cellular FXR activities). Type of assay: cell-based. The conditions noted are these: for EC50: FXR reporter cells, 24 hours incubation, luciferase, read-out: Reporter Cell EC50; for Emax: read-out: Emax (%) (GW4064 Emax = 100%). The method, then: FXR reporter assay was performed to measure cellular FXR activities of the compounds in the present invention. FXR reporter cells with high expression level of human FXR were seeded into 96-well cell culture plates, and incubated for 1-2 hours at 37° C. under 5% CO2 atmosphere. The invented compounds diluted in DMSO with various concentrations were added to the 96-well cell culture plates, and they were incubated for 24 hours at 37° C. under 5% CO2 atmosphere. After incubation, we calculate EC50 by using luciferase substrate.
(In general: In a reporter assay the amount or activity of a reporter protein is the signal.)

As usually defined, the EC50 is the concentration needed to bring the measured effect to its halfway point. As a reminder, the Emax is the greatest response seen or fitted, relative to the assay's reference.

The structures appear in SMILES notation. Structures can show the parent of a compound that is named as a salt. Some results are limits rather than exact numbers.

`O=C(O)c1cccc(C#Cc2c(F)cc(OCc3c(-c4c(Cl)cccc4Cl)noc3C3CC3)cc2Cl)c1` [Compound I-70, 3-((2-chloro-4-((5-cyclopropyl-3-(2,6-dichlorophenyl)isoxazol-4-yl)methoxy)-6-fluorophenyl)ethynyl)benzoic acid]: the 50% effective concentration (EC50) lay in the range of 60 to 200 nM and the maximal effect (Emax) is more than 100%.

Take `CC(=O)Nc1cc(C#Cc2ccc(OCc3c(-c4c(Cl)cccc4Cl)noc3C3CC3)cc2Cl)cc(C(=O)O)c1` [Compound I-73, 3-acetamido-5-((2-chloro-4-((5-cyclopropyl-3-(2,6-dichlorophenyl)isoxazol-4-yl)methoxy)phenyl)ethynyl)benzoic acid]: the EC50 was 200 to 1000 nM and the Emax is more than 100%.

Consider `O=C(O)c1cc(C#Cc2ccc(OCc3c(-c4c(Cl)cccc4Cl)noc3C3CC3)cc2Cl)cc(N2CCNCC2)c1` [Compound I-59, 3-((2-chloro-4-((5-cyclopropyl-3-(2,6-dichlorophenyl)isoxazol-4-yl)methoxy)phenyl)ethynyl)-5-(piperazin-1-yl)benzoic acid hydrochloride], for which the concentration for a half-maximal effect (EC50) lay within 200 to 1000 nM and the Emax was determined as 90%.

Consider `O=C(O)c1cc(C#Cc2ccc(OCc3c(-c4c(Cl)cccc4Cl)noc3C3CC3)cc2Cl)cc2nc(C3CC3)oc12` [Compound I-110, 5-((2-chloro-4-((5-cyclopropyl-3-(2,6-dichlorophenyl)isoxazol-4-yl)methoxy)phenyl)ethynyl)-2-cyclopropylbenzo[d]oxazole-7-carboxylic acid], for which the EC50 is not above 20 nM and the Emax was 92%.

On to `O=C(O)c1cc(Cl)cc(C#Cc2ccc(OCc3c(-c4c(Cl)cccc4Cl)noc3C3CC3)cc2Cl)c1` [Compound I-27, 3-chloro-5-((2-chloro-4-((5-cyclopropyl-3-(2,6-dichlorophenyl)isoxazol-4-yl)methoxy)phenyl)ethynyl)benzoic acid], for which the EC50 was 20 to 60 nM and the Emax turned out to be 91%.

On to `CN(C(=O)OC(C)(C)C)c1cc(C#Cc2ccc(OCc3c(-c4c(Cl)cccc4Cl)noc3C3CC3)cc2Cl)cc(C(=O)O)c1` [Compound I-78, 3-((tert-butoxycarbonyl)(methyl)amino)-5-((2-chloro-4-((5-cyclopropyl-3-(2,6-dichlorophenyl)isoxazol-4-yl)methoxy)phenyl)ethynyl)benzoic acid], for which the EC50 lay in the range of 20 to 60 nM and the Emax was 89%.

With `O=C(O)c1cccc(C#Cc2ccc(OCc3c(-c4c(Cl)cccc4Cl)noc3C3CC3)cc2Cl)c1F` [Compound I-36, 3-((2-chloro-4-((5-cyclopropyl-3-(2,6-dichlorophenyl)isoxazol-4-yl)methoxy)phenyl)ethynyl)-2-fluorobenzoic acid], the concentration giving a half-maximal response (EC50) fell in the range of 60 to 200 nM and the Emax was 93%.

For the compound `O=C(Nc1cc(C#Cc2ccc(OCc3c(-c4c(Cl)cccc4Cl)noc3C3CC3)cc2Cl)cc(C(=O)O)c1)OC1CC1` [Compound I-76, 3-((2-chloro-4-((5-cyclopropyl-3-(2,6-dichlorophenyl)isoxazol-4-yl)methoxy)phenyl)ethynyl)-5-((cyclopropoxycarbonyl)amino)benzoic acid], the half-maximal effective concentration (EC50) was not above 20 nM and the maximal response (Emax) was more than 100%.

On to `CC(C)c1cc(C#Cc2ccc(OCc3c(-c4c(Cl)cccc4Cl)noc3C3CC3)cc2Cl)cc(C(=O)O)c1` [Compound I-66, 3-((2-chloro-4-((5-cyclopropyl-3-(2,6-dichlorophenyl)isoxazol-4-yl)methoxy)phenyl)ethynyl)-5-isopropylbenzoic acid], for which the 50% effective concentration (EC50) is 60 to 200 nM and the Emax worked out at 92%.

For `COc1cc(C#Cc2ccc(OCc3c(-c4c(Cl)cccc4Cl)noc3C3CC3)cc2Cl)cc(C(=O)O)c1` [Compound I-40, 3-((2-chloro-4-((5-cyclopropyl-3-(2,6-dichlorophenyl)isoxazol-4-yl)methoxy)phenyl)ethynyl)-5-methoxybenzoic acid], the half-maximal effective concentration (EC50) is 20 to 60 nM and the Emax worked out at 83%.

Consider `O=C(O)c1cc(C#Cc2ccc(OCc3c(-c4c(Cl)cccc4Cl)noc3C3CC3)cc2Cl)cc2nc(CO)oc12` [Compound I-107, 5-((2-chloro-4-((5-cyclopropyl-3-(2,6-dichlorophenyl)isoxazol-4-yl)methoxy)phenyl)ethynyl)-2-(hydroxymethyl)benzo[d]oxazole-7-carboxylic acid], for which the EC50 was more than 1000 nM and the maximal effect (Emax) is more than 100%.

`O=C(O)c1cc(C#Cc2ccc(OCc3c(-c4c(Cl)cccc4Cl)noc3C3CC3)cc2Cl)c2ccn(CCN3CCOCC3)c2c1` [Compound I-95, 4-((2-chloro-4-((5-cyclopropyl-3-(2,6-dichlorophenyl)isoxazol-4-yl)methoxy)phenyl)ethynyl)-1-(2-morpholinoethyl)-1H-indole-6-carboxylic acid hydrochloride]: the concentration for a half-maximal effect (EC50) lay within 20 to 60 nM and the Emax is more than 100%.

In the case of `O=C(O)c1cc(C#Cc2ccc(OCc3c(-c4c(Cl)cccc4Cl)noc3C3CC3)cc2Cl)cc(CNC2COC2)c1` [Compound I-51, 3-((2-chloro-4-((5-cyclopropyl-3-(2,6-dichlorophenyl)isoxazol-4-yl)methoxy)phenyl)ethynyl)-5-((oxetan-3-ylamino)methyl)benzoic acid], the EC50 lay within 200 to 1000 nM and the Emax was determined as 75%.

As for `O=C(O)c1cc(C#Cc2ccc(OCc3c(-c4c(Cl)cccc4Cl)noc3C3CC3)cc2Cl)ccc1Cl` [Compound I-29, 2-chloro-5-((2-chloro-4-((5-cyclopropyl-3-(2,6-dichlorophenyl)isoxazol-4-yl)methoxy)phenyl)ethynyl)benzoic acid], the concentration giving a half-maximal response (EC50) was in the range of 60 to 200 nM and the Emax was determined as 93%.

Regarding `CCc1cc(C#Cc2ccc(OCc3c(-c4c(Cl)cccc4Cl)noc3C3CC3)cc2Cl)cc(C(=O)O)c1` [Compound I-65, 3-((2-chloro-4-((5-cyclopropyl-3-(2,6-dichlorophenyl)isoxazol-4-yl)methoxy)phenyl)ethynyl)-5-ethylbenzoic acid], the EC50 lay in the range of 60 to 200 nM and the Emax was 92%.

In the case of `CC(C)(C)NCc1cc(C#Cc2ccc(OCc3c(-c4c(Cl)cccc4Cl)noc3C3CC3)cc2Cl)cc(C(=O)O)c1` [Compound I-48, 3-((tert-butylamino)methyl)-5-((2-chloro-4-((5-cyclopropyl-3-(2,6-dichlorophenyl)isoxazol-4-yl)methoxy)phenyl)ethynyl)benzoic acid], the EC50 was 200 to 1000 nM and the maximal effect (Emax) was determined as 81%.

Take `O=C(O)c1cc(C#Cc2ccc(OCc3c(-c4c(Cl)cccc4Cl)noc3C3CC3)cc2Cl)cc2c1OCC2` [Compound I-100, 5-((2-chloro-4-((5-cyclopropyl-3-(2,6-dichlorophenyl)isoxazol-4-yl)methoxy)phenyl)ethynyl)-2,3-dihydrobenzofuran-7-carboxylic acid]: the 50% effective concentration (EC50) fell in the range of 60 to 200 nM and the Emax is more than 100%.

With `O=C(O)c1cc(C#Cc2ccc(OCc3c(-c4c(Cl)cccc4Cl)noc3C3CC3)cc2Cl)c2ccn(Cc3ccncc3)c2c1` [Compound I-94, 4-((2-chloro-4-((5-cyclopropyl-3-(2,6-dichlorophenyl)isoxazol-4-yl)methoxy)phenyl)ethynyl)-1-(pyridin-4-ylmethyl)-1H-indole-6-carboxylic acid], the EC50 fell in the range of 60 to 200 nM and the maximal response (Emax) is more than 100%.

For the origin of these results see patent publication US10988449B2, “Isoxazole derivatives as nuclear receptor agonists and uses thereof” (IL DONG PHARMACEUTICAL CO., LTD., priority 2017, dated 2021).
